Reference: patent EP0571593B1, “NEW NON IONIC IODIZED AGENTS FOR X-RAY CONTRASTING, METHOD FOR PREPARING THEM AND GALENICAL COMPOSITIONS CONTAINING THEM” (CENTRO INVESTIGACION JUSTESA IMAGEN S.A., priority 1991, dated 1993)

What was measured:
Format in all cases: physicochemical
[1] = Iodine content
[2] = Osmolality of aqueous solutions; conditions: 300mg I/ml
[3] = Viscosity of aqueous solutions; conditions: 30°C, 300mg I/ml

% Iodine [1]	Osmolality mosm/kg at 300mg I/ml [2]	Viscosity mPa s (30°C) at 300mg I/ml [3]	SMILES
50%	190 mosm/kg	7,6 mPa s	CN(CC(=O)N(C)c1c(I)c(C(=O)NC(CO)C(O)CO)c(I)c(C(=O)NC(CO)C(O)CO)c1I)C(=O)c1c(I)c(NC(=O)CO)c(I)c(C(=O)NCC(O)CO)c1I (stereo not drawn) [EXAMPLE 8, N,N'-bis-(1-hydroxymethyl-2,3-dihydroxypropyl)-5-{3-[N-(2,3-dihydroxypropyl)carbamoyl]-5-hydroxyacetamido-2,4,6-triiodobenzoyl-N-methylaninoacetyl-N-nethylamino}-2,4,6-tri iodoisophthalamide]
48,6%	204 mosm/kg	8,9 mPa s	COCC(=O)Nc1c(I)c(C(=O)NC(CO)C(O)CO)c(I)c(C(=O)N(C)CC(=O)N(C)c2c(I)c(C(=O)NC(CO)C(O)CO)c(I)c(C(=O)NC(CO)C(O)CO)c2I)c1I (stereo not drawn) [EXAMPLE 10, N,N'-bis-(1-hydroxymethyl-2,3-dihydroxypropyl)-5-{3-[N-(1-hydroxymethyl-2,3-dihydroxypropyl)carbamoyl]-5-methoxyacetamido-2,4,6-triiodobenzoyl-N-methylaminoacetyl-N-methylamino}-2,4,6-triiodoisophthalamide]
51,6%	130 mosm/kg	8,6 mPa s	COCC(=O)Nc1c(I)c(C(=O)NCC(O)CO)c(I)c(C(=O)N(C)CC(=O)N(C)c2c(I)c(C(=O)NCC(O)CO)c(I)c(C(=O)NCC(O)CO)c2I)c1I (stereo not drawn) [EXAMPLE 12, N,N'-bis-(2,3-dihydroxypropyl)-5-{3-[N-(2,3-dihydroxypropyl)carbamoyl]-5-methoxyacetamido-2,4,6-triiodobenzoyl -N-methylaminoacetyl-N-methylamino}-2,4,6-triiodoisophthalamide]
50,5%	190 mosm/kg	7,2 mPa s	O=C(CN(CC(O)CO)C(=O)c1c(I)c(NC(=O)CO)c(I)c(C(=O)NCC(O)CO)c1I)Nc1c(I)c(C(=O)NCC(O)CO)c(I)c(C(=O)NCC(O)CO)c1I (stereo not drawn) [EXAMPLE 13, N,N'-bis-(2,3-dihydroxypropyl)-5-{3-[N-(2,3-dihydroxypropyl)carbamoyl]-5-hydroxyacetamido-2,4,6-triiodobenzoyl-N-(2,3-dihydroxypropyl)aminoacetamido}-2,4,6-triiodoisophthalamide]
50%	162 mosm/kg	8,6 mPa s	COCC(=O)Nc1c(I)c(C(=O)NCC(O)CO)c(I)c(C(=O)N(CC(=O)Nc2c(I)c(C(=O)NCC(O)CO)c(I)c(C(=O)NCC(O)CO)c2I)CC(O)CO)c1I (stereo not drawn) [EXAMPLE 15, N,N'-bis-(2,3-dihydroxypropyl)-5-{3-[N-(2,3-dihydroxypropyl)carbamoyl]-5-methoxyacetamido-2,4,6-triiodobenzoyl -N-(2,3-dihydroxypropyl)aminoacetamido}-2,4,6-triiodo isophthalamide]
50,5%	131 mosm/kg	7,6 mPa s	O=C(NCCO)c1c(I)c(C(=O)NCCO)c(I)c(N(CCO)C(=O)CN(CCO)C(=O)c2c(I)c(C(=O)NCC(O)CO)c(I)c(N(CCO)C(=O)CO)c2I)c1I (stereo not drawn) [EXAMPLE 16, N,N'-bis-(2-hydroxyethyl)-5-{3-[N-(2,3-dihydroxypropyl)-carbamoyl]-5-hydroxyacetyl-N-(2-hydroxyethyl)amino-2,4,6-tri-iodobenzoyl-N-(2-hydroxyethyl)amino-acetyl-N-(2-hydroxyethyl)amino}-2,4,6-triiodoisophthalamide]
49%	118 mosm/kg	10,0 mPa s	COCC(=O)Nc1c(I)c(C(=O)NCC(O)CO)c(I)c(C(=O)N(CCO)CC(=O)Nc2c(I)c(C(=O)NC(CO)C(O)CO)c(I)c(C(=O)NC(CO)C(O)CO)c2I)c1I (stereo not drawn) [EXAMPLE 22, N,N'-bis-(1-hydroxymethyl-2,3-dihydroxypropyl)-5-{3-[N-(2,3-dihydroxypropyl)carbamoyl]-5-methoxyacetamido-2,4,6-triiodobenzoyl-N-(2-hydroxyethyl)aminoacetamido}-2,4,6-triiodo isophthalamide]
50,5%	162 mosm/kg	7,9 mPa s	CC(=O)Nc1c(I)c(C(=O)NCC(O)CO)c(I)c(C(=O)N(CC(=O)N(C)c2c(I)c(C(=O)NCC(O)CO)c(I)c(C(=O)NCC(O)CO)c2I)CC(O)CO)c1I (stereo not drawn) [EXAMPLE 23, N,N -bis-(2,3-dihydroxypropyl)-5-{3-[N-(2,3-dihydroxypropyl)carbamoyl]-5-acetamido-2,4,6-triiodobenzoyl-N-(2,3-dihydroxypropyl)aminoacetyl-N-methylamino}-2,4,6-triiodoisophthalamide]
51,1%	165 mosm/kg	7,1 mPa s	CN(CC(=O)N(C)c1c(I)c(C(=O)N(C)CC(O)CO)c(I)c(C(=O)N(C)CC(O)CO)c1I)C(=O)c1c(I)c(NC(=O)CO)c(I)c(C(=O)NCC(O)CO)c1I (stereo not drawn) [EXAMPLE 24, N,N'-bis-(2,3-dihydroxypropyl)-N,N'-dimethyl-5-{3-[N-(2,3-dihydroxypropyl)carbamoyl]-5-hydroxyacetamido-2,4,6-triiodobenzoyl-N-methylaminoacetyl-N-methylamino}-triiodo isophthalamide]
50,6%	140 mosm/kg	8,0 mPa s	COCC(=O)Nc1c(I)c(C(=O)NCC(O)CO)c(I)c(C(=O)N(C)CC(=O)N(C)c2c(I)c(C(=O)N(C)CC(O)CO)c(I)c(C(=O)N(C)CC(O)CO)c2I)c1I (stereo not drawn) [EXAMPLE 25, N,N'-bis-(2,3-dihydroxypropyl)-N,N'-dimethyl-5-{3-[N-(2,3-dihydroxypropyl)carbamoyl]-5-methoxyacetamido-2,4,6-triiodobenzoyl-N-methylaminoacetyl-N-methylamino}-2,4,6-triiodo isophthalamide]
51,6%	145 mosm/kg	7,7 mPa s	CN(CC(O)CO)C(=O)c1c(I)c(C(=O)N(C)CC(O)CO)c(I)c(N(C)C(=O)CNC(=O)c2c(I)c(NC(=O)CO)c(I)c(C(=O)NCC(O)CO)c2I)c1I (stereo not drawn) [EXAMPLE 26, N,N'-bis-(2,3-dihydroxypropyl)-N,N'-dimethyl-5-{3-[N-(2,3-dihydroxypropyl)carbamoyl]-5-hydroxyacetamido-2,4,6-triiodobenzoylaminoacetyl-N-methylamino}-2,4,6-triiodoiso phthalamide]
50%	155 mosm/kg	8,2 mPa s	COCC(=O)N(CCO)c1c(I)c(C(=O)NCC(O)CO)c(I)c(C(=O)N(CCO)CC(=O)N(CCO)c2c(I)c(C(=O)NCCO)c(I)c(C(=O)NCCO)c2I)c1I (stereo not drawn) [EXAMPLE 32, N,N'-bis-(2-hydroxyethyl)-5-{3-[N-(2,3-dihydroxypropyl)carbamoyl]-5-methoxyacetyl-N-(2-hydroxyethyl)amino-2,4,6-triiodobenzoyl-N-(2-hydroxyethyl)aminoacetyl-N-(2-hydroxyethyl)amino}-2,4,6-triiodoisophthalamide]
